Test results from US20230086702A1, “SUBSTITUTED 2-AMINO-PYRAZOLYL-[1,2,4]TRIAZOLO[1,5A]PYRIDINE DERIVATIVES AND USE THEREOF” (The Johns Hopkins University, priority 2019, published 2023).
pIC50: −log10 of the molar value.

Experiments:
[1] = biological target: T1, LZK (Homo sapiens, UniProt O43283); assay: LZK biochemical assay (TR-FRET, MKK7 phosphorylation); details: LZK catalytic domain, MKK7 substrate, 15 μM ATP
T1 construct: 10 nM LZK, catalytic domain, Carna Biosiences in assay buffer; purchased Carna Biosciences ('Carna Biosiences' [sic])
T1 sequence (O43283 168-409 limits assumed): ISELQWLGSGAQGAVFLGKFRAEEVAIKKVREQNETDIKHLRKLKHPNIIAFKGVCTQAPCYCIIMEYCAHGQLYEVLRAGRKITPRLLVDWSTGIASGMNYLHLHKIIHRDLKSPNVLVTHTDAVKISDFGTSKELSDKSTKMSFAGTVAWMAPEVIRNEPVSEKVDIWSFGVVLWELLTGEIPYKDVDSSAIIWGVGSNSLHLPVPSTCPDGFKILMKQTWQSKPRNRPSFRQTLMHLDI

[2] = biological target: T2, DLK (Homo sapiens, UniProt Q12852); assay: DLK biochemical assay (TR-FRET, MKK7 phosphorylation); details: DLK catalytic domain, MKK7 substrate, 60 μM ATP
T2 construct: 10 nM DLK, catalytic domain, Carna Biosiences; purchased Carna Biosciences ('Carna Biosiences' [sic])
T2 sequence (Q12852 125-366 limits assumed): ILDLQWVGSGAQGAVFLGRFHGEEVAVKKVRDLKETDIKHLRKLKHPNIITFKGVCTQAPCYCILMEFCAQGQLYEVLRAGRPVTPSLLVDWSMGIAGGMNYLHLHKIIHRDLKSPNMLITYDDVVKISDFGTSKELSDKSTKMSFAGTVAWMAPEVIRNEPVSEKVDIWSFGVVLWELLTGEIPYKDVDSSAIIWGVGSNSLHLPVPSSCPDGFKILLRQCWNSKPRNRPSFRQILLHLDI
Summary of the method: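 Human DLK activity measured as phosphorylation of His-tagged MKK7 at T275/S277, detected by TR-FRET between Eu-anti-phospho-MKK7 donor (excitation 340 nm) and XL665-anti-His acceptor (665 nm). Signal taken as the XL665/Eu ratio. Detection buffer: 25 mM Tris/HCl pH 7.5, 100 mM EDTA, 100 mM NaCl, 200 mM KF, 0.01% Tween 20.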

Q: Which results are given for `CC[C@H](C)NC(=O)c1cc(-c2cnn(C(c3ccc(C(F)F)nc3)C3CC3)c2)cc2nc(N)nn12` (single isomer, unassigned) [Example I-99]?
A: pIC50 [1]: 7.85; pIC50 [2]: 7.51

Q: What does the source list for `CC[C@H](C)NC(=O)c1cc(-c2cnn(C(c3ccc(C(F)F)nc3)C3CC3)c2)cc2nc(N)nn12` (single isomer, unassigned) [Example I-100]?
A: pIC50 [1]: 8.37; pIC50 [2]: 8.55

Q: What does the source list for `CC[C@H](c1ccc(C(F)(F)F)nc1)n1cc(-c2cc(C(=O)N[C@@H](C)CC)n3nc(N)nc3c2)cn1` (single isomer, unassigned) [Example I-102]?
A: pIC50 [1]: 7.96; pIC50 [2]: 8.15

Q: How did the pIC50 [1] turn out when `CC[C@H](C)NC(=O)c1cc(-c2cnn([C@@H](CC)c3ccc(C(F)(F)F)nc3)c2)cc2nc(N)nn12` (single isomer, unassigned) [Example I-103] was run?
A: 8.62

Q: What about the pIC50 [2] of the same compound?
A: 9.10

Q: What does the source list for `CC[C@H](C)NC(=O)c1cc(-c2cnn(C(c3ccc(C(F)(F)F)nc3)C(C)C)c2)cc2nc(N)nn12` (single isomer, unassigned) [Example I-105]?
A: pIC50 [1]: 7.85; pIC50 [2]: 7.89

Q: `CC[C@H](C)NC(=O)c1cc(-c2cnn(C(c3ccc(C(F)(F)F)nc3)C3CC3)c2)cc2nc(N)nn12` (single isomer, unassigned) [Example I-108] was tested. Which pIC50 [1] did it give?
A: 7.77

Q: And the pIC50 [2]?
A: 7.55

Q: What does the source list for `CC[C@H](C)NC(=O)c1cc(-c2cnn([C@H](c3ccc(C(F)(F)F)nc3)C3CC3)c2)cc2nc(N)nn12` (single isomer, unassigned) [Example I-109]?
A: pIC50 [1]: 8.46; pIC50 [2]: 8.74

Q: `CC[C@H](C)NC(=O)c1cc(-c2cnn(C(c3ccc(C(F)(F)F)nc3)C3CCOCC3)c2)cc2nc(N)nn12` (single isomer, unassigned) [Example I-111] was tested. Which pIC50 [1] did it give?
A: 8.85

Q: And the pIC50 [2]?
A: 9.30

Q: What does the source list for `CC[C@H](C)NC(=O)c1cc(-c2cnn(C(c3ccc(C(F)(F)F)nc3)C3CCOCC3)c2)cc2nc(N)nn12` (single isomer, unassigned) [Example I-112]?
A: pIC50 [1]: 8.15; pIC50 [2]: 8.10

Q: Which results are given for `CCC(c1ccc(OCC(F)(F)F)nc1)n1cc(-c2cc(C(=O)N[C@@H](C)CC)n3nc(N)nc3c2)cn1` (single isomer, unassigned) [Example I-114]?
A: pIC50 [1]: 6.89; pIC50 [2]: 7.31

Q: Which results are given for `CCC(c1ccc(OCC(F)(F)F)nc1)n1cc(-c2cc(C(=O)N[C@@H](C)CC)n3nc(N)nc3c2)cn1` (single isomer, unassigned) [Example I-115]?
A: pIC50 [1]: 7.70; pIC50 [2]: 8.38

Q: With `CC[C@H](C)NC(=O)c1cc(-c2cnn(C(c3ccc(OCC(F)(F)F)nc3)C(C)C)c2)cc2nc(N)nn12` (single isomer, unassigned) [Example I-117] as the compound, how does the pIC50 [1] read?
A: 6.60

Q: And the pIC50 [2]?
A: 7.14

Q: How did the pIC50 [1] turn out when `CC[C@H](C)NC(=O)c1cc(-c2cnn(C(c3ccc(OCC(F)(F)F)nc3)C(C)C)c2)cc2nc(N)nn12` (single isomer, unassigned) [Example I-118] was run?
A: 7.54

Q: And the pIC50 [2]?
A: 8.07

Q: Which results are given for `CC[C@H](C)NC(=O)c1cc(-c2cnn(C(c3ccc(OCC(F)(F)F)nc3)C3CC3)c2)cc2nc(N)nn12` (single isomer, unassigned) [Example I-120]?
A: pIC50 [1]: 6.85; pIC50 [2]: 7.36

Q: Which results are given for `CC[C@H](C)NC(=O)c1cc(-c2cnn(C(c3ccc(OCC(F)(F)F)nc3)C3CC3)c2)cc2nc(N)nn12` (single isomer, unassigned) [Example I-121]?
A: pIC50 [1]: 7.52; pIC50 [2]: 8.72

Q: How did the pIC50 [1] turn out when `CC[C@H](C)NC(=O)c1cc(-c2cnn(C(c3c(F)cncc3F)C(C)C)c2)cc2nc(N)nn12` (single isomer, unassigned) [Example I-124] was run?
A: 6.57

Q: What about the pIC50 [2] of the same compound?
A: 7.22

Q: With `CC[C@H](C)NC(=O)c1cc(-c2cnn(C(c3c(F)cncc3F)C(C)C)c2)cc2nc(N)nn12` (single isomer, unassigned) [Example I-125] as the compound, how does the pIC50 [1] read?
A: 7.18

Q: And the pIC50 [2]?
A: 8.27

Q: How did the pIC50 [1] turn out when `CC[C@H](C)NC(=O)c1cc(-c2cnn(C(c3ccnc(OC)c3)C(C)C)c2)cc2nc(N)nn12` (single isomer, unassigned) [Example I-127] was run?
A: 7.28

Q: And the pIC50 [2]?
A: 7.77

Q: How did the pIC50 [1] turn out when `CC[C@H](C)NC(=O)c1cc(-c2cnn([C@H](c3ccnc(OC)c3)C(C)C)c2)cc2nc(N)nn12` (single isomer, unassigned) [Example I-128] was run?
A: 8.48

Q: And the pIC50 [2]?
A: 9.30

Q: With `CCC(c1ccc(Cl)s1)n1cc(-c2cc(C(=O)N[C@@H](C)CC)c3nc(N)nn3c2)cn1` (single isomer, unassigned) [Example I-130] as the compound, how does the pIC50 [1] read?
A: 7.00

Q: What about the pIC50 [2] of the same compound?
A: 7.28

Q: How did the pIC50 [1] turn out when `CCC(c1ccc(Cl)s1)n1cc(-c2cc(C(=O)N[C@@H](C)CC)c3nc(N)nn3c2)cn1` (single isomer, unassigned) [Example I-131] was run?
A: 7.48

Q: What about the pIC50 [2] of the same compound?
A: 8.82

Q: `CC[C@H](NC(=O)c1cc(-c2cnn(Cc3ccccc3)c2)cn2nc(N)nc12)C(F)(F)F` (single isomer, unassigned) [Example I-133] was tested. Which pIC50 [1] did it give?
A: 6.48

Q: And the pIC50 [2]?
A: 6.96

Q: `CC[C@@H](NC(=O)c1cc(-c2cnn(Cc3ccccc3)c2)cn2nc(N)nc12)C(F)(F)F` (single isomer, unassigned) [Example I-134] was tested. Which pIC50 [1] did it give?
A: 6.01

Q: And the pIC50 [2]?
A: 6.64

Q: `COC[C@H](C)NC(=O)c1cc(-c2cnn(Cc3ccc(F)cc3)c2)cn2nc(N)nc12` (single isomer, unassigned) [Example I-135, 2-Amino-6-{1-[(4-fluorophenyl)methyl]-1H-pyrazol-4-yl}-N-[(25)-1-methoxypropan-2-yl][1,2,4]triazolo[1,5-a]pyridine-8-carboxamide] was tested. Which pIC50 [1] did it give?
A: 6.26

Q: What about the pIC50 [2] of the same compound?
A: 6.72

Q: How did the pIC50 [1] turn out when `CC(CF)NC(=O)c1cc(-c2cnn(C(c3ccccc3)C(C)C)c2)cn2nc(N)nc12` (single isomer, unassigned) [Example I-139, 2-Amino-N-(1-fluoropropan-2-yl)-6-{1-[2-methyl-1-phenylpropyl]-1H-pyrazol-4-yl}[1,2,4]triazolo[1,5-a]pyridine-8-carboxamide] was run?
A: 7.19

Q: What about the pIC50 [2] of the same compound?
A: 8.77

Q: With `CC(CF)NC(=O)c1cc(-c2cnn(C(c3ccccc3)C(C)C)c2)cn2nc(N)nc12` (single isomer, unassigned) [Example I-140, 2-Amino-N-(1-fluoropropan-2-yl)-6-[1-(2-methyl-1-phenylpropyl)-1H-pyrazol-4-yl][1,2,4]triazolo[1,5-a]pyridine-8-carboxamide] as the compound, how does the pIC50 [1] read?
A: 7.49

Q: And the pIC50 [2]?
A: 9.30

Q: How did the pIC50 [1] turn out when `CC(CF)NC(=O)c1cc(-c2cnn(C(c3ccccc3)C(C)C)c2)cn2nc(N)nc12` (single isomer, unassigned) [Example I-141, 2-Amino-N-(1-fluoropropan-2-yl)-6-[1-(2-methyl-1-phenylpropyl)-1H-pyrazol-4-yl][1,2,4]triazolo[1,5-a]pyridine-8-carboxamide] was run?
A: 6.45

Q: And the pIC50 [2]?
A: 7.59

Q: With `CC(CF)NC(=O)c1cc(-c2cnn(C(c3ccccc3)C(C)C)c2)cn2nc(N)nc12` (single isomer, unassigned) [Example I-142, 2-Amino-N-[1-fluoropropan-2-yl]-6-{1-[2-methyl-1-phenylpropyl]-1H-pyrazol-4-yl}[1,2,4]triazolo[1,5-a]pyridine-8-carboxamide] as the compound, how does the pIC50 [1] read?
A: 6.62

Q: What about the pIC50 [2] of the same compound?
A: 8.38

Q: With `CC(CF)NC(=O)c1cc(-c2cnn(C3CCOc4ccccc43)c2)cn2nc(N)nc12` (single isomer, unassigned) [Example I-145, 2-Amino-6-[1-(3,4-dihydro-2H-chromen-4-yl)-1H-pyrazol-4-yl]-N-(1-fluoropropan-2-yl)[1,2,4]triazolo[1,5-a]pyridine-8-carboxamide] as the compound, how does the pIC50 [1] read?
A: 6.96

Q: What about the pIC50 [2] of the same compound?
A: 6.96

Q: `CC(CF)NC(=O)c1cc(-c2cnn(C3CCOc4ccccc43)c2)cn2nc(N)nc12` (single isomer, unassigned) [Example I-146, 2-Amino-6-[1-(3,4-dihydro-2H-chromen-4-yl)-1H-pyrazol-4-yl]-N-(1-fluoropropan-2-yl)[1,2,4]triazolo[1,5-a]pyridine-8-carboxamide] was tested. Which pIC50 [1] did it give?
A: 7.07

Q: What about the pIC50 [2] of the same compound?
A: 6.89

Q: Which results are given for `CC[C@@H](c1ccc(F)cc1)n1cc(-c2cc(C(=O)NC(C)CF)n3nc(N)nc3c2)cn1` (single isomer, unassigned) [Example I-149, 2-Amino-7-{1-[(15)-1-(4-fluorophenyl)propyl]-1H-pyrazol-4-yl}-N-(1-fluoropropan-2-yl)[1,2,4]triazolo[1,5-a]pyridine-5-carboxamide]?
A: pIC50 [1]: 7.89; pIC50 [2]: 8.77

Q: `CC[C@@H](c1ccc(F)cc1)n1cc(-c2cc(C(=O)NC(C)CF)n3nc(N)nc3c2)cn1` (single isomer, unassigned) [Example I-150, 2-Amino-7-{1-[(15)-1-(4-fluorophenyl)propyl]-1H-pyrazol-4-yl}-N-(1-fluoropropan-2-yl)[1,2,4]triazolo[1,5-a]pyridine-5-carboxamide] was tested. Which pIC50 [1] did it give?
A: 7.22

Q: What about the pIC50 [2] of the same compound?
A: 8.19

Q: With `CCC(c1ccc(C(F)(F)F)nc1)n1cc(-c2cc(C(=O)N[C@@H](C)CO)c3nc(N)nn3c2)cn1` (single isomer, unassigned) [Example I-152] as the compound, how does the pIC50 [1] read?
A: 8.41

Q: What about the pIC50 [2] of the same compound?
A: 9.15
